pIC50: −log10 of the molar value.

Data set [1] addresses T1, Bifunctional epoxide hydrolase 2 (Mus musculus, UniProt P34914).
T1 sequence (P34914 whole entry): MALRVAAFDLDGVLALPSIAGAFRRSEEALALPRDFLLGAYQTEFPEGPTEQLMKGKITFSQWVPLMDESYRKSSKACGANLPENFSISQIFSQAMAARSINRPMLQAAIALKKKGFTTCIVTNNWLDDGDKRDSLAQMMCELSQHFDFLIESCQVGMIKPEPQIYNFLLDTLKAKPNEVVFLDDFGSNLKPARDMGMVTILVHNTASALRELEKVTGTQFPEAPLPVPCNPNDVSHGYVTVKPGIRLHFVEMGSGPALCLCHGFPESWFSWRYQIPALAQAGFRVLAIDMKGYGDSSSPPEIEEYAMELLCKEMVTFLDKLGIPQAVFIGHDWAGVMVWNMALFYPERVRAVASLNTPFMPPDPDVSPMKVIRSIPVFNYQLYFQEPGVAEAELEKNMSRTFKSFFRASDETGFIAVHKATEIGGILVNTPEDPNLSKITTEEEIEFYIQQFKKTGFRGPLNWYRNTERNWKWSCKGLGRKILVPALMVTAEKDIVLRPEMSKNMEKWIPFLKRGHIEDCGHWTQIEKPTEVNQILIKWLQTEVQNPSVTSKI
In words: Inhibition of male C57BL/6J mouse brain sEH assessed as quantity of 14,15-DHET level measured after 15 mins incubation by HPLC-MS analysis.

Data set [2] has as its system Mus musculus. Kind of data set: Antiinflammatory activity against cerulein-induced acute pancreatitis in CD1 mouse assessed as increase in pancreatic 8,9-EET/DHET ratio at 20 mg/kg, ip pretreated with cerulein followed by compound injection on 30 and 150 mins and measured 6 hrs post cerulein treatment relative to model group. In kind it is functional. As to conditions: time 30-360 min; call rule not given here.

Data set [3] concerns Mus musculus. In words: Antiinflammatory activity against cerulein-induced acute pancreatitis in CD1 mouse assessed as increase in pancreatic 14,15-EET/DHET ratio at 20 mg/kg, ip pretreated with cerulein followed by compound injection on 30 and 150 mins and measured 6 hrs post cerulein treatment relative to model group. As to conditions: time 30-360 min. Format: functional.

Data set [4] deals with Staphylococcus aureus. In words: Antimicrobial activity against methicillin-resistant Staphylococcus aureus 19B120 by microbroth dilution method. Format: functional. For orientation: Dilution methods test growth across graded concentrations, often in twofold steps.
The next data set deals with HepG2. In words: Cytotoxicity against human HepG2 cells assessed as cell viability at 0.5 to 5 uM measured after 48 hrs by CCK-8 assay. In kind it is toxicity, cell-based. As to conditions: hepg2, 48 h, dose 0.5-5 µM.
For data set [5], the system named is Staphylococcus aureus. In words: Antimicrobial activity against Staphylococcus aureus ATCC 29213 by microbroth dilution method. In kind it is functional.
The test system of data set [6] is Mus musculus. In words: Antiinflammatory activity against cerulein-induced acute pancreatitis in CD1 mouse assessed as increase in plasma 14,15-EET/DHET ratio at 20 mg/kg, ip pretreated with cerulein followed by compound injection on 30 and 150 mins and measured 6 hrs post cerulein treatment relative to model group. In kind it is functional. As to conditions: time 30-360 min.

The next data set concerns HEK-293T. In words: Cytotoxicity against human 293T cells assessed as cell viability at 0.5 to 5 uM measured after 48 hrs by CCK-8 assay. Format: toxicity, cell-based. As to conditions: dose 0.5-5 µM. For orientation: Tetrazolium dyes change colour on reduction, which living cells bring about.
The test system of data set [7] is Mus musculus. Kind of data set: Antiinflammatory activity against cerulein-induced acute pancreatitis in CD1 mouse assessed as increase in plasma 8,9-EET/DHET ratio at 20 mg/kg, ip pretreated with cerulein followed by compound injection on 30 and 150 mins and measured 6 hrs post cerulein treatment relative to model group. In kind it is functional. As to conditions: time 30-360 min.

Data set [8] relates to Mus musculus. In words: Anti-inflammatory activity in carrageen-induced paw edema BALB/c mouse model assessed as inhibition of soft tissue edema and inflammation measured immediately at 20 mg/kg, po measured at 1 to 4 hrs. Format: functional. As to conditions: time 1-4 hrs.
Data set [9] deals with Mus musculus. In words: Anti-inflammatory activity in carrageen-induced paw edema BALB/c mouse model assessed as inhibition of soft tissue edema and inflammation measured immediately at 0.5 mg/kg, ip measured up to 6 hrs. In kind it is functional.

Take `O=C(NCC1CCOCC1)Nc1ccc2c(c1)CN1CCc3cc4c(cc3C1C2)OCO4` (stereo unspecified): the pIC50 in data set [1] was 7.80.
With `COc1cc2c(cc1OC)C1Cc3ccc(NC(=O)NCc4ccc(S(N)(=O)=O)cc4)cc3CN1CC2` (stereo unspecified), the pIC50 in data set [1] was 7.76.
Consider `COc1cc2c(cc1OC)CN1CCc3cc(NC(=O)NCc4ccc(OC(F)(F)F)cc4)ccc3[C@H]1C2`, for which the “fold change (FC)” value in the data set with Mus musculus [2] amounted to 6.7; with Mus musculus [3], 18.5; with Mus musculus [6], 3.3; in the data set with Mus musculus [7] it was 2. Also, the MIC against Staphylococcus aureus [4] and in the data set on Staphylococcus aureus [5] was greater than 64 µg/mL throughout. The Activity entry with HepG2 and in the data set on HEK-293T was “Non-toxic” throughout.
For the molecule `COc1cc2c(cc1OC)CN1CCc3cc(NC(=O)NCc4ccc(OC(F)(F)F)cc4)ccc3[C@@H]1C2`, in the data set on Mus musculus [8], the inhibition in vivo at 20 mg/kg stood at 27%.
`COc1ccc2cc3[n+](cc2c1OC)CCc1cc2c(cc1-3)OCO2` [BERBERINE]: the values for the MIC against Staphylococcus aureus [4] and in the data set on Staphylococcus aureus [5] were 32 µg/mL and 64 µg/mL, respectively.
As to `CCC(=O)N1CCC(CNC(=O)Nc2ccc3c(c2)CN(C)c2c-3ccc3ccccc23)CC1`, the pIC50 in data set [1] is 8.16. Besides, the Activity entry in the data set with HepG2 and in the data set on HEK-293T was “Non-toxic” each time.
`CCC(=O)N1CCC(NC(=O)Nc2ccc(OC(F)(F)F)cc2)CC1`: in the data set on Mus musculus [9], the inhibition in vivo at 0.5 mg/kg turned out to be 15%. The inhibition in vivo at 20 mg/kg in the data set with Mus musculus [8] was 25%.
For `COc1cc2c(cc1OC)CN1CCc3cc(NC(=O)NCc4ccc(OC(F)F)cc4)ccc3C1C2` (stereo unspecified), the pIC50 in data set [1] is 9.14. In addition, the Activity entry in the data set on HepG2 and in the data set with HEK-293T was “Non-toxic” each time.
In the case of `COc1cc2c(cc1OC)C1Cc3ccc(NC(=O)Nc4ccc(OC(F)(F)F)cc4)cc3CN1CC2` (stereo unspecified), in data set [1], the pIC50 was 7.39.
As for `COc1cc2c(cc1OC)C1Cc3ccc(NC(=O)NCc4ccc(OC(F)F)cc4)cc3CN1CC2` (stereo unspecified), in [1], the pIC50 is 8.88. The Activity result with HepG2 and with HEK-293T was “Non-toxic” throughout.
Turning to `CCC(=O)N1CCC(NC(=O)Nc2ccc3c(c2)CN2CCc4cc5c(cc4C2C3)OCO5)CC1` (stereo unspecified), in data set [1], the pIC50 was 7.01.
In the case of `COc1cc2c(cc1OC)CN1CCc3cc(NC(=O)NCC4CCOCC4)ccc3C1C2` (stereo unspecified), the pIC50 in data set [1] was 7.67.
On the same count and under the same terms, the figure for `CCC(=O)N1CCC(CNC(=O)Nc2ccc3c(c2)CCN2Cc4cc(OC)c(OC)cc4CC32)CC1` (stereo unspecified) is 7.37; for `CN1Cc2cc(NC(=O)NCc3ccc(OC(F)(F)F)cc3)ccc2-c2ccc3ccccc3c21` it is 7.92.
Turning to `O=C(NCc1ccc(OC(F)F)cc1)Nc1ccc2c(c1)CN1CCc3cc4c(cc3C1C2)OCO4` (stereo unspecified), the pIC50 in [1] was 9.17. Moreover, the Activity result in the data set on HepG2 and in the data set with HEK-293T was “Non-toxic” throughout.
`CCC(=O)N1CCC(CNC(=O)Nc2ccc3c(c2)CN2CCc4cc(OC)c(OC)cc4C2C3)CC1` (stereo unspecified): the pIC50 in data set [1] is 7.73.
`CCC(=O)N1CCC(CNC(=O)Nc2ccc3c(c2)CN2CCc4cc5c(cc4C2C3)OCO5)CC1` (stereo unspecified): in data set [1], the pIC50 was 7.81. The Activity result in the data set with HepG2 and with HEK-293T was “Non-toxic” in each case.
With `COc1cc2c(cc1OC)-c1cc3ccc(NC(=O)NCc4ccc(OC(F)(F)F)cc4)cc3c[n+]1CC2`, in data set [1], the negative-log IC50 (pIC50) was 6.68. The MIC with Staphylococcus aureus [4] and against Staphylococcus aureus [5] was 8 µg/mL in each case.
`COc1cc2c(cc1OC)-c1cc3ccc(NC(=O)NCc4ccc(OC(F)(F)F)cc4)cc3c(=O)n1CC2`: in data set [1], the pIC50 is 7.42.
For `COc1cc2c(cc1OC)C1Cc3ccc(NC(=O)NCc4ccc(OC(F)(F)F)cc4)cc3CN1CC2` (stereo unspecified), in data set [1], the pIC50 was 9.07. For the same molecule, the inhibition in vivo at 0.5 mg/kg in the data set on Mus musculus [9] turned out to be 35%. Besides, the Activity result with HepG2 and in the data set on HEK-293T was “Non-toxic” in each case.
`COc1cc2cc3[n+](cc2cc1OC)CCc1cc(NC(=O)NCc2ccc(OC(F)(F)F)cc2)ccc1-3.[Cl-]`: the pIC50 in data set [1] is 7.41. Further, the MIC against Staphylococcus aureus [4] came out at 4 µg/mL; against Staphylococcus aureus [5], 8 µg/mL.
Turning to `COc1cc2c(cc1OC)C1Cc3ccc(NC(=O)NCc4cccc(OC(F)(F)F)c4)cc3CN1CC2` (stereo unspecified), in data set [1], the pIC50 is 8.59. In the data set with Mus musculus [9], the inhibition result is reported as “Active; Reduced Inhibition In Later Stages Of Experiment”. Besides, the Activity entry with HepG2 and in the data set on HEK-293T was “Non-toxic” throughout.
Consider `CC(C)CNC(=O)Nc1ccc2c(c1)CN(C)c1c-2ccc2ccccc12`, for which the pIC50 in data set [1] was 7.69.
On the same count and under the same terms, the figure for `O=C(NCc1ccc(OC(F)(F)F)cc1)Nc1ccc2c(c1)CN1CCc3cc4c(cc3C1C2)OCO4` (stereo unspecified) is 8.83; for `CC(C)CNC(=O)Nc1ccc2c(c1)CN1CCc3cc4c(cc3C1C2)OCO4` (stereo unspecified) it is 8.00.
On the same count and under the same terms, the figure for `CCC(=O)N1CCC(NC(=O)Nc2ccc3c(c2)CN2CCc4cc(OC)c(OC)cc4C2C3)CC1` (stereo unspecified) is 6.84; for `COc1cc2c(cc1OC)C1Cc3ccc(NC(=O)NCC4COC4)cc3CN1CC2` (stereo unspecified) it is 5.58; for `COc1cc2c(cc1OC)C1Cc3ccc(NC(=O)NC[C@@H]4CCCO4)cc3CN1CC2` (stereo partly specified) it is 7.27.
Take `COc1cc2c(cc1OC)C1Cc3ccc(NC(=O)NCc4ccc(S(C)(=O)=O)cc4)cc3CN1CC2` (stereo unspecified): in data set [1], the pIC50 is 8.21. Further, the inhibition in vivo at 0.5 mg/kg with Mus musculus [9] worked out at 25%. Also, the Activity result in the data set on HepG2 and in the data set with HEK-293T was “Non-toxic” throughout.
Consider `O=C(NCc1cccc(OC(F)(F)F)c1)Nc1ccc2c(c1)CN1CCc3cc4c(cc3C1C2)OCO4` (stereo unspecified), for which, in data set [1], the pIC50 is 8.63.
Same read-out and setting: the figure for `COc1cc2c(cc1OC)C1Cc3ccc(NC(=O)NCC4CCOCC4)cc3CN1CC2` (stereo unspecified) is 7.71.
Consider `CN1Cc2cc(NC(=O)NCC3CCOCC3)ccc2-c2ccc3ccccc3c21`, for which the pIC50 in [1] was 8.25. Also, the Activity entry in the data set with HepG2 and with HEK-293T was “Non-toxic” in each case.
For the molecule `COc1cc2c(cc1OC)CN1CCc3cc(NC(=O)NCc4ccc(OC(F)(F)F)cc4)ccc3C1C2` (stereo unspecified), the pIC50 in data set [1] was 8.55. Besides, the inhibition in vivo at 0.5 mg/kg in the data set on Mus musculus [9] is 35%. The Activity entry with HepG2 and in the data set with HEK-293T was “Non-toxic” in each case.
Regarding `COc1cc2c(cc1OC)C1Cc3ccc(NC(=O)NCC4CCCCC4)cc3CN1CC2` (stereo unspecified), the pIC50 in data set [1] is 8.30.

As a reminder, the pIC50 is −log10 of the IC50, conventionally taken in molar units. Usually MIC stands for the least concentration at which growth counts as inhibited. The term inhibition in vivo denotes the share of the control response that was lost under treatment.

The values are drawn from ChEMBL document CHEMBL6078704, “Redesigning Berberines and Sanguinarines to Target Soluble Epoxide Hydrolase for Enhanced Anti-Inflammatory Efficacy” (J Med Chem, 2024).
